# Values of other authors, collected in the CATMoS acute toxicity set (Mansouri et al. 2021).
# Values joined by “and” are separate entries in the source; they are usually repeats but may differ in a detail not shown here. Identical values can stand only once.
# Experiment: rat acute oral toxicity
# Conditions: in vivo
# Description: […]The data set underlying the modeling effort for this project was initially compiled by NICEATM and U.S. EPA’s CCTE. Briefly, LD50 data were collected from rat acute oral systemic toxicity tests, including limit tests, ranges/confidence intervals, and discrete LD50 values. The full data set included 21,200 LD50 entries for 15,688 substances. […] Data were reviewed to ensure that LD50 values with obvious errors in the extracted data such as unit conversion errors (e.g., comma and decimal separator misplacements) were either fixed or removed. After this review, 16,209 LD50 values remained. Many of the chemicals represented had multiple LD50 entries, requiring that a single representative value per Chemical Abstracts Service Registry Number (CASRN) identifier be defined to facilitate modeling efforts. Based on ATWG feedback and to define the representative LD50 as a protective value while accounting for the distribution across multiple LD50s, the median of the lowest quartile was computed using only discrete LD50 values (omitting limit test data and range and confidence interval data). A detailed summary of the data compilation is available online on the NICEATM webpage dedicated to the collaborative modeling project (NTP 2020).
# […][…] For categorical designations, limit test and range/confidence interval LD50 data were integrated wherever possible. As such, the number of chemicals with end point values/calls varies across the modeling end points (Table 3) based on whether chemicals had representative LD50 values and/or other data. If a chemical had both, the representative value was used to determine categorical calls rather than limit test data. Some data were useable only for certain end points and categories depending on the thresholds. For example, ranges that spanned multiple hazard categories were considered only for the binary (very toxic/nontoxic) end points and omitted from rendering a determination for hazard category assignment.
# […]The final data set comprising 11,992 chemicals was split into training and evaluation sets […], respectively. This process was performed semirandomly by ordering chemicals based on the five end points (categorical and continuous LD50 values) and partitioning every fourth record into the evaluation set accordingly. This approach was taken to ensure an equivalent distribution of the LD50 values and the different hazard categories between the training and the evaluation sets without supervised sampling of the chemicals based on structures (Figure 1A). The sources of the chemical structures were also kept equivalent between the two sets, with chemical structures obtained from DSSTox, being the highest quality, representing over 75% of each set (Figure 1B).
row,SMILES,LD50
1,CN1Cc2c(N)cccc2C(c2ccccc2)C1 (configuration not stated),267 mg/kg and 430 mg/kg
2,CCC[C@]1(c2cccc(O)c2)CCN(C)C[C@@H]1C,887 mg/kg
3,N#CC(Cl)(Cl)Cl,250 mg/kg
4,CCCCCCCN1C(C)=CSC1=Cc1scc(C)[n+]1CCCCCCC,460 mg/kg
5,Fc1ccc([C@@H]2CCNC[C@H]2COc2ccc3c(c2)OCO3)cc1,415 mg/kg
6,C=CCc1ccccc1,5540 mg/kg
7,NC(=O)CBr,100 mg/kg
8,O=[N+]([O-])c1cc([N+](=O)[O-])c(F)cc1F,50 mg/kg
9,O=P(OCCCl)(OCCCl)OCC(CO)(CO)COP(=O)(OCCCl)OCCCl,4920 mg/kg
10,CCOP(=S)(OCC)Oc1ccc2c(C)cc(=O)oc2c1,14.7 mg/kg
11,CCCOC(=O)C1c2cc3c(cc2CC(C)C1C(=O)OCCC)OCO3 (configuration not stated),1500 mg/kg
12,C=CC1(C)CCC(C(C)(C)O)O1 (configuration not stated),1150 mg/kg
13,O=S(=O)(c1ccccc1)c1ccccc1,300 mg/kg
14,CCCN(CCC)C(=O)SCc1ccccc1,1820 mg/kg
15,Cc1cc(Sc2cc(C)c(O)c(C(C)(C)C)c2)cc(C(C)(C)C)c1O,6340 mg/kg
16,CCCCCOC(C[n+]1ccccc1)c1ccc(C2CCCCC2)cc1 (configuration not stated),250 mg/kg
17,CCCCCCCOCCOCCO,2940 mg/kg
18,CCCSC(=O)Cl,1130 mg/kg
19,O=C(O)Cc1ccc2c(c1)C(=O)c1ccccc1CO2,143 mg/kg
20,CCC(O)(COC(N)=O)c1ccccc1 (configuration not stated),607 mg/kg
21,NC(CCN1CCCCCC1)=NO,500 mg/kg

row,SMILES,LD50
1,CCCCCCOCC(O)COc1ccccc1C(=O)O (configuration not stated),2150 mg/kg
2,CN1CCC(N(Cc2ccccc2)c2ccccc2)CC1,460 mg/kg
3,CCCCCOC(=S)S,1000 mg/kg
4,CCOP(N)(=O)SC (configuration not stated),5 mg/kg
5,CC(O)CNC(C)(C)Cc1ccc(Cl)cc1 (configuration not stated),150 mg/kg
6,OCC1CCc2cc(C3CCCCC3)ccc21 (configuration not stated),295 mg/kg and 165 mg/kg
7,CC(=O)CCCCn1c(=O)c2c(ncn2C)n(C)c1=O,1170 mg/kg
8,COP(N)(=S)OC,410 mg/kg
9,CC(=O)CCc1ccc(-c2ccccc2)cc1,1030 mg/kg
10,O=c1ncc2[nH]cnc2[nH]1,1040 mg/kg
11,CCCCCCCCOC(C[n+]1ccccc1)c1ccc(C2CCCCC2)cc1 (configuration not stated),250 mg/kg
12,CN(C)S(=O)(=O)CCNC(=O)N(CCCl)N=O,39 mg/kg
13,COCCN1C(=O)C2C3C=C(C(O)(c4ccccc4)c4ccccn4)C(C3=C(c3ccccc3)c3ccccn3)C2C1=O (configuration not stated),9 mg/kg
14,Cc1cc(=O)nc(C(C)C)[nH]1,2700 mg/kg
15,CC[N+](CC)(CCNC(=O)C(=O)NCC[N+](CC)(CC)Cc1ccccc1Cl)Cc1ccccc1Cl,18.5 mg/kg
16,COc1cc(C(=O)OCCCCN2CCN(c3ccccc3)CC2)cc(OC)c1OC,2500 mg/kg
17,CNc1c(Cl)cc(C(=O)NC2CC2)cc1Cl,262 mg/kg
18,CCC(O)CC,1870 mg/kg
19,COP(=S)(OC)SC(CBr)N1C(=O)c2ccccc2C1=O (configuration not stated),188 mg/kg
20,CN(C)C1CCCCC1,348 mg/kg
21,FC(F)(F)c1nc2ccc(Br)cc2[nH]1,49 mg/kg

row,SMILES,LD50
1,NC(=O)c1ccc(Cl)c(N)c1,900 mg/kg
2,C=CCc1ccc(OC=O)c(OC)c1,3400 mg/kg
3,CCCCC(CC)COC(CBr)c1ccc(Cl)c(Cl)c1 (configuration not stated),250 mg/kg
4,COCCN(C(=O)CCl)c1c(C)cccc1C,1600 mg/kg
5,CCCCCCCCNC(C)C(O)c1ccc(SC(C)C)cc1 (configuration not stated),1740 mg/kg
6,CC(=O)Oc1ccc(C2(c3ccc(OC(C)=O)cc3)C(=O)N(C(C)=O)c3ccccc32)cc1,500 mg/kg
7,CC(C)(C)CC(C)(C)SSSSCC(C)(CC(C)(C)C)SSSSC(C)(C)CC(C)(C)C (configuration not stated),3640 mg/kg
8,O=C1CN(N=Cc2ccc([N+](=O)[O-])o2)C(=O)N1,604 mg/kg
9,CNC(=O)Oc1ccccc1C1CCCC1,187 mg/kg
10,O=C1OC(=O)c2ccc3c4c(ccc1c24)C(=O)OC3=O,7400 mg/kg
11,OCCC(F)(F)C(F)(F)C(F)(F)C(F)(F)C(F)(F)C(F)(F)F,1750 mg/kg
12,CCCn1c(C)cc(OP(=S)(OCC)OCC)cc1=O,9.75 mg/kg
13,C=CCOC(=O)CC#N,160 mg/kg
14,CC[C@@]1(O)C[N@@]2CC[C@H]1C[C@@H]2[C@@H](O)c1ccnc2ccc(OC)cc12,600 mg/kg
15,c1nc(NC2CC2)c2ncn(C3CC3)c2n1,130 mg/kg
16,C=CC1OCCO1,84.7 mg/kg
17,Nc1ccc(-c2ccc(-n3nc4ccc5c(S(=O)(=O)O)cc(S(=O)(=O)O)cc5c4n3)cc2)cc1,7210 mg/kg
18,C#CCN(C)Cc1ccccc1,250 mg/kg and 300 mg/kg
19,CN(C)CCC1Oc2ccccc2Nc2ccccc21 (configuration not stated),1400 mg/kg
20,Clc1nc(Cl)c(Cl)[nH]1,11 mg/kg
